Data as given in US6355799B1, “Substituted benzene compounds, process for their preparation, and herbicidal and defoliant compositions containing them” (ISK Americas Incorporated, priority 1997, dated 2002).

Experiments:
Type in all cases: in vivo
[1] = test system: barnyardgrass (Echinochloa crus-galli, ECHCG); experiment: Pre-emerge test, greenhouse herbicide activity screening; conditions: pre-emerge, rated 14 days after application, 0 = no damage, 100 = complete death
Procedure, shortened: (§1)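 Fourteen days after spraying, crop and weed injury was graded visually from 0, no effect, to 100, every plant dead. Test substances were dissolved in acetone and applied at 15–1000 g ai/ha with a flat-fan nozzle. Application was either pre-emergence, one day after sowing, or post-emergence at the 2–3 leaf stage.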

[2] = test system: lambsquarters (Chenopodium album, CHEAL); experiment: as above; conditions: pre-emerge, rated 14 days after application, 0 = no damage, 100 = complete death
Procedure, shortened: as §1

[3] = test system: common ragweed (Ambrosia artemisizfolia L., AMBEL); experiment: as above; conditions: pre-emerge, rated 14 days after application, 0 = no damage, 100 = complete death
Procedure, shortened: as §1

[4] = test system: large crabgrass (Digitaria sanguinalis, DIGSA); experiment: as above; conditions: pre-emerge, rated 14 days after application, 0 = no damage, 100 = complete death
Procedure, shortened: as §1

[5] = test system: green foxtail (Setaria viridis, SETVI); experiment: as above; conditions: pre-emerge, rated 14 days after application, 0 = no damage, 100 = complete death
Procedure, shortened: as §1

[6] = test system: johnsongrass (Sorghum halepense, SORHA); experiment: as above; conditions: pre-emerge, rated 14 days after application, 0 = no damage, 100 = complete death
Procedure, shortened: as §1

[7] = test system: sicklepod (Cassia obtusifolia, CASOB); experiment: as above; conditions: pre-emerge, rated 14 days after application, 0 = no damage, 100 = complete death
Procedure, shortened: as §1

[8] = test system: velvetleaf (Abutilon theophrasti, ABUTH); experiment: as above; conditions: pre-emerge, rated 14 days after application, 0 = no damage, 100 = complete death
Procedure, shortened: as §1

[9] = test system: ivyleaf morningglory (Ipomoea hederacea, IPOHE); experiment: as above; conditions: pre-emerge, rated 14 days after application, 0 = no damage, 100 = complete death
Procedure, shortened: as §1

[10] = test system: upland rice (Oryza sp., var. Tebonnet, RICE); experiment: Post-emerge test, crop safety; conditions: phytotoxicity rating 0-100 (0 no damage, 100 complete death), 14 days after application
Procedure, shortened: as §1

[11] = test system: field corn (Zea mays L., var. Dekalb 535, CORN); experiment: Post-emerge test, crop safety; conditions: phytotoxicity rating 0-100 (0 no damage, 100 complete death), 14 days after application
Procedure, shortened: as §1

[12] = test system: redroot pigweed (Amaranthus retroflexus, AMARE); experiment: Pre-emerge test, greenhouse herbicide activity screening; conditions: pre-emerge, rated 14 days after application, 0 = no damage, 100 = complete death
Procedure, shortened: (§2)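 Visual ratings on a 0-100 scale (0 no damage, 100 all plants dead) were taken at 14 days after treatment. Rates of 15-1000 g ai/ha in acetone, 187 l/ha, were sprayed onto soil one day after planting (pre-emerge) or onto 2-3 leaf plants with 0.25% v/v surfactant (post-emerge).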

[13] = test system: barnyardgrass (Echinochloa crus-galli, ECHCG); experiment: Post-emerge test, greenhouse herbicide activity screening; conditions: phytotoxicity rating 0-100 (0 no damage, 100 complete death), 14 days after application
Procedure, shortened: (§3)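 Sandy loam pots; pre-emerge: sown 1 d pre-spray, surface-watered after, then bottom-watered. Post-emerge: sown 8–21 d before, 2–3 leaf stage, + 0.25% v/v NIS, bottom-watered. Acetone, 187 l/ha track spray, 15–1000 g ai/ha. 0–100 injury score, day 14.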

[14] = test system: lambsquarters (Chenopodium album, CHEAL); experiment: as above; conditions: phytotoxicity rating 0-100 (0 no damage, 100 complete death), 14 days after application
Procedure, shortened: as §3

[15] = test system: common ragweed (Ambrosia artemisizfolia L., AMBEL); experiment: as above; conditions: phytotoxicity rating 0-100 (0 no damage, 100 complete death), 14 days after application
Procedure, shortened: as §3

[16] = test system: large crabgrass (Digitaria sanguinalis, DIGSA); experiment: as above; conditions: phytotoxicity rating 0-100 (0 no damage, 100 complete death), 14 days after application
Procedure, shortened: as §3

[17] = test system: green foxtail (Setaria viridis, SETVI); experiment: as above; conditions: phytotoxicity rating 0-100 (0 no damage, 100 complete death), 14 days after application
Procedure, shortened: as §3

[18] = test system: redroot pigweed (Amaranthus retroflexus, AMARE); experiment: as above; conditions: phytotoxicity rating 0-100 (0 no damage, 100 complete death), 14 days after application
Procedure, shortened: as §3

[19] = test system: sicklepod (Cassia obtusifolia, CASOB); experiment: as above; conditions: phytotoxicity rating 0-100 (0 no damage, 100 complete death), 14 days after application
Procedure, shortened: as §3

[20] = test system: velvetleaf (Abutilon theophrasti, ABUTH); experiment: as above; conditions: phytotoxicity rating 0-100 (0 no damage, 100 complete death), 14 days after application
Procedure, shortened: as §3

[21] = test system: ivyleaf morningglory (Ipomoea hederacea, IPOHE); experiment: as above; conditions: phytotoxicity rating 0-100 (0 no damage, 100 complete death), 14 days after application
Procedure, shortened: as §3

[22] = test system: upland rice (Oryza sp., var. Tebonnet, RICE); experiment: Pre-emerge test, crop safety; conditions: pre-emerge, rated 14 days after application, 0 = no damage, 100 = complete death
Procedure, shortened: as §2

[23] = test system: field corn (Zea mays L., var. Dekalb 535, CORN); experiment: Pre-emerge test, crop safety; conditions: pre-emerge, rated 14 days after application, 0 = no damage, 100 = complete death
Procedure, shortened: as §2

CCOC(=O)C(C)Nc1cc(Cl)cc(F)c1-n1c(=O)cc(C(F)(F)F)n(C)c1=O (stereo not shown) [Compound 1-54]
30: Pre-emerge Herbicidal Activity CASOB (phytotoxicity rating, scale 0-100) ([7]; 63 g ai/ha)
100: Pre-emerge Herbicidal Activity ECHCG (phytotoxicity rating, scale 0-100) ([1]; 250 g ai/ha) | Pre-emerge Herbicidal Activity CHEAL (phytotoxicity rating, scale 0-100) ([2]; 63 g ai/ha) | Pre-emerge Herbicidal Activity CHEAL (phytotoxicity rating, scale 0-100) ([2]; 250 g ai/ha) | Pre-emerge Herbicidal Activity AMBEL (phytotoxicity rating, scale 0-100) ([3]; 63 g ai/ha) | Pre-emerge Herbicidal Activity AMBEL (phytotoxicity rating, scale 0-100) ([3]; 250 g ai/ha) | Pre-emerge Herbicidal Activity DIGSA (phytotoxicity rating, scale 0-100) ([4]; 250 g ai/ha) | Pre-emerge Herbicidal Activity SETVI (phytotoxicity rating, scale 0-100) ([5]; 250 g ai/ha) | Pre-emerge Herbicidal Activity SORHA (phytotoxicity rating, scale 0-100) ([6]; 250 g ai/ha) | Pre-emerge Herbicidal Activity ABUTH (phytotoxicity rating, scale 0-100) ([8]; 63 g ai/ha) | Pre-emerge Herbicidal Activity ABUTH (phytotoxicity rating, scale 0-100) ([8]; 250 g ai/ha) | Pre-emerge Herbicidal Activity IPOHE (phytotoxicity rating, scale 0-100) ([9]; 63 g ai/ha) | Pre-emerge Herbicidal Activity IPOHE (phytotoxicity rating, scale 0-100) ([9]; 250 g ai/ha) | Pre-emerge Herbicidal Activity AMARE (phytotoxicity rating, scale 0-100) ([12]; 63 g ai/ha) | Pre-emerge Herbicidal Activity AMARE (phytotoxicity rating, scale 0-100) ([12]; 250 g ai/ha) | Post-emerge Herbicidal Activity CHEAL ([14]; 63 g ai/ha) | Post-emerge Herbicidal Activity CHEAL ([14]; 250 g ai/ha) | Post-emerge Herbicidal Activity AMBEL ([15]; 63 g ai/ha) | Post-emerge Herbicidal Activity AMBEL ([15]; 250 g ai/ha) | Post-emerge Herbicidal Activity AMARE ([18]; 63 g ai/ha) | Post-emerge Herbicidal Activity AMARE ([18]; 250 g ai/ha) | Post-emerge Herbicidal Activity CASOB ([19]; 250 g ai/ha) | Post-emerge Herbicidal Activity ABUTH ([20]; 63 g ai/ha) | Post-emerge Herbicidal Activity ABUTH ([20]; 250 g ai/ha) | Post-emerge Herbicidal Activity IPOHE ([21]; 63 g ai/ha) | Post-emerge Herbicidal Activity IPOHE ([21]; 250 g ai/ha)
20: Post-emerge Herbicidal Activity ECHCG ([13]; 63 g ai/ha)
90: Pre-emerge Herbicidal Activity SETVI (phytotoxicity rating, scale 0-100) ([5]; 63 g ai/ha) | Post-emerge Herbicidal Activity CASOB ([19]; 63 g ai/ha)
45: Pre-emerge Herbicidal Activity ECHCG (phytotoxicity rating, scale 0-100) ([1]; 63 g ai/ha) | Post-emerge Herbicidal Activity RICE (crop damage) ([10]; 250 g ai/ha)
50: Post-emerge Herbicidal Activity CORN (crop damage) ([11]; 63 g ai/ha)
99: Pre-emerge crop damage CORN (phytotoxicity rating, scale 0-100) ([23]; 250 g ai/ha)
75: Post-emerge Herbicidal Activity ECHCG ([13]; 250 g ai/ha)
95: Pre-emerge crop damage RICE (phytotoxicity rating, scale 0-100) ([22]; 250 g ai/ha) | Pre-emerge crop damage CORN (phytotoxicity rating, scale 0-100) ([23]; 63 g ai/ha)
40: Post-emerge Herbicidal Activity RICE (crop damage) ([10]; 63 g ai/ha) | Post-emerge Herbicidal Activity DIGSA ([16]; 63 g ai/ha) | Post-emerge Herbicidal Activity SETVI ([17]; 63 g ai/ha)
70: Post-emerge Herbicidal Activity CORN (crop damage) ([11]; 250 g ai/ha) | Post-emerge Herbicidal Activity DIGSA ([16]; 250 g ai/ha)
80: Pre-emerge Herbicidal Activity DIGSA (phytotoxicity rating, scale 0-100) ([4]; 63 g ai/ha) | Pre-emerge Herbicidal Activity SORHA (phytotoxicity rating, scale 0-100) ([6]; 63 g ai/ha) | Pre-emerge Herbicidal Activity CASOB (phytotoxicity rating, scale 0-100) ([7]; 250 g ai/ha)
60: Post-emerge Herbicidal Activity SETVI ([17]; 250 g ai/ha) | Pre-emerge crop damage RICE (phytotoxicity rating, scale 0-100) ([22]; 63 g ai/ha)
